Reference: the supplement of paper PMC10307832

Legend:
Assay in all cases: relative viability (nuclei count vs DMSO), 5 days (fraction); higher = more cells survive
[1] = system: EMC-BAC-2
How it was run: (§1)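 Relative viability is defined as nuclei in treated wells over nuclei in vehicle wells. Duplicate plates were run and medians reported. Lung cancer cell lines in 1536-well plates were dosed by pin tool one day after seeding, with one drug or with a fixed anchor-drug dose plus five library-drug doses (not always all listed) in √10 steps, and nuclei were counted after 5 days.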

[2] = system: HCC-366
How it was run: as §1

[3] = system: HCC-78
How it was run: as §1

[4] = system: LCLC-97TM1
How it was run: as §1

[5] = system: NCI-H1395
How it was run: as §1

[6] = system: NCI-H1648
How it was run: as §1

[7] = system: NCI-H1703
How it was run: as §1

[8] = system: A549
How it was run: as §1

[9] = system: IA-LM
How it was run: as §1

Row | Compound | relative viability ([1]; first compound 0.02 µM) | relative viability ([1]; first compound 0.2 µM) | relative viability ([1]; first compound 0.6325 µM) | relative viability ([1]; first compound 2 µM) | relative viability ([2]; first compound 0.02 µM) | relative viability ([2]; first compound 0.2 µM) | relative viability ([2]; first compound 0.6325 µM) | relative viability ([2]; first compound 2 µM) | relative viability ([3]; first compound 0.02 µM) | relative viability ([3]; first compound 0.6325 µM) | relative viability ([3]; first compound 2 µM) | relative viability ([4]; first compound 0.02 µM) | relative viability ([4]; first compound 0.6325 µM) | relative viability ([4]; first compound 2 µM) | relative viability ([5]; first compound 0.02 µM) | relative viability ([5]; first compound 0.2 µM) | relative viability ([5]; first compound 0.6325 µM) | relative viability ([5]; first compound 2 µM) | relative viability ([6]; first compound 0.02 µM) | relative viability ([6]; first compound 0.2 µM) | relative viability ([6]; first compound 0.6325 µM) | relative viability ([6]; first compound 2 µM) | relative viability ([7]; first compound 0.02 µM) | relative viability ([7]; first compound 0.6325 µM) | relative viability ([7]; first compound 2 µM) | relative viability ([4]; first compound 0.2 µM) | relative viability ([8]; first compound 0.02 µM) | relative viability ([8]; first compound 0.6325 µM) | relative viability ([8]; first compound 2 µM) | relative viability ([9]; first compound 0.02 µM) | relative viability ([9]; first compound 0.6325 µM) | relative viability ([9]; first compound 2 µM)
1 | CN1CCN(CCOc2cc(OC3CCOCC3)c3c(Nc4c(Cl)ccc5c4OCO5)ncnc3c2)CC1 [Saracatinib] + NC(=O)Nc1cc(-c2cccc(F)c2)sc1C(=O)N[C@H]1CCCNC1 [AZD7762] (partner 0.2 µM) | 1.12 | 1.09 | 1.09 | 0.946 | 0.215 | 0.0547 | 0.216 | 0.139 | 0.583 | 0.774 | 0.421 | 0.294 | 0.398 | 0.265 | 0.404 | 0.397 | 0.388 | 0.382 | 0.79 | 0.633 | 0.865 | 0.379 | 0.136 | 0.129 | 0.114 | – | – | – | – | – | – | –
2 | CN1CCN(CCOc2cc(OC3CCOCC3)c3c(Nc4c(Cl)ccc5c4OCO5)ncnc3c2)CC1 [Saracatinib] + Nc1nc2[nH]cc(CCc3ccc(C(=O)N[C@@H](CCC(=O)O)C(=O)O)cc3)c2c(=O)[nH]1 [Pemetrexed] (partner 0.2 µM) | 0.456 | 0.373 | 0.44 | 0.442 | 0.162 | 0.17 | 0.189 | 0.17 | 0.916 | 0.925 | 0.841 | 0.18 | 0.172 | 0.136 | 0.896 | 0.769 | 0.846 | 0.612 | 0.721 | 0.766 | 1.08 | 0.415 | – | – | – | 0.134 | – | – | – | – | – | –
3 | CN1CCN(CCOc2cc(OC3CCOCC3)c3c(Nc4c(Cl)ccc5c4OCO5)ncnc3c2)CC1 [Saracatinib] + Nc1ncn([C@H]2C[C@H](O)[C@@H](CO)O2)c(=O)n1 [Decitabine] (partner 2 µM) | 1.05 | 0.922 | 1.02 | 0.91 | 0.321 | 0.148 | 0.293 | 0.194 | 0.524 | 0.736 | 0.686 | 0.244 | 0.215 | 0.178 | 0.752 | 0.753 | 0.737 | 0.635 | 0.534 | 0.367 | 0.647 | 0.391 | – | – | – | 0.18 | 0.266 | 0.279 | 0.237 | – | – | –
4 | CN1CCN(CCOc2cc(OC3CCOCC3)c3c(Nc4c(Cl)ccc5c4OCO5)ncnc3c2)CC1 [Saracatinib] + O=C(CCCCCCC(=O)Nc1ccccc1)NO [Vorinostat] (partner 1 µM) | 0.417 | 0.43 | 0.417 | 0.291 | 0.4 | 0.135 | 0.399 | 0.221 | 0.459 | 0.476 | 0.427 | 0.775 | 0.839 | 0.554 | 0.766 | 0.632 | 0.706 | 0.464 | 0.338 | 0.352 | 0.782 | 0.433 | – | – | – | 0.411 | – | – | – | 1.01 | 1.4 | 0.798
